Measurements reported in patent US8012944B2, “Method for treating cancer using IAP antisense oligomer and chemotherapeutic agent” (Pharmascience Inc., priority 2003, dated 2011).

What was measured:
Format in all cases: cell-based, human
HIAP1 mRNA [1] = assay: HIAP1 mRNA in SF295 cells, basal conditions (TaqMan); design: decrease of HIAP1 mRNA compared to mock or scrambled survivin control: concentration or dose not given beside the values; conditions: for HIAP1 mRNA levels (in words): SF295 cells (FIG. 21)
Description: RNA was extracted from cells lysed in RLT buffer (QIAGEN, Valencia, Calif.), and purified using QIAGEN RNeasy columns/kits. Real-time quantitative PCR was performed on a Perkin-Elmer ABI 7700 Prism PCR machine. RNA was reverse transcribed and amplified according to the TaqMan Universal PCR Master Mix protocol of PE Biosystems, using primers and probes designed to specifically recognize XIAP, HIAP1, survivin, or GAPDH. For human survivin, the forward primer was 5′-[…]-3′ (SEQ ID NO: 263), the reverse primer was 5′-GAAAGGAAAGCGCAACCG-3′ (SEQ ID NO: 264), and the probe was 5′-(FAM)[…](TAMRA)-3′ (SEQ ID NO: 265). For human HIAP1, the forward primer was 5′-[…]-3′ (SEQ ID NO: 266), the reverse primer was 5′-[…]-3′ (SEQ ID NO: 267), and the probe was 5′-(FAM)[…](TAMRA)-3′ (SEQ ID NO: 268). For human XIAP, the forward primer was 5′-[…]-3′ (SEQ ID NO: 269), the reverse primer was 5′-[…]-3′ (SEQ ID NO: 270), and the probe was 5′-(FAM)[…](TAMRA)-3′ (SEQ ID NO: 271). For human GAPDH, the forward primer was 5′-GAAGGTGAAGGTCGGAGTC-3′ (SEQ ID NO: 272), the reverse primer was 5′-GAAGATGGTGATGGGATTC-3′ (SEQ ID NO: 273), and the probe was 5′-(JOE)[…](TAMRA)-3′ (SEQ ID NO: 274). FAM is 6-carboxyfluoroscein, JOE is 6-carboxy-4,5-dichloro-2,7-dimethoxyfluoroscein, and TAMRA is 6-carboxy-N,N,N′,N′-tetramethylrhodamine. FAM and JOE are 5′ reporter dyes, while TAMRA is a 3′ quencher dye.
Relative quantification of gene expression was performed as described in the PE Biosystems manual using GAPDH as an internal standard. The comparative Ct (cycle threshold) method was used for relative quantitation of IAP mRNA levels compared to GAPDH mRNA levels. Briefly, real-time fluorescence measurements were taken at each PCR cycle and the threshold cycle (Ct) value for each sample was calculated by determining the point at which fluorescence exceeded a threshold limit of 30 times the baseline standard deviation. The average baseline value and the baseline SD are calculated starting from the third cycle baseline value and stopping at the baseline value three cycles before the signal starts to exponentially rise. The PCR primers and/or probes for the specific IAPs were designed to span at least one exon-intron boundary separated by 1 kb or more of genomic DNA, to reduce the possibility of amplifying and detecting genomic DNA contamination. The specificity of the signal, and possible contamination from DNA, were verified by treating some RNA samples with either DNase or RNase, prior to performing the reverse transcription and PCR reaction steps.
A library of 15 HIAP1 antisense nucleobase oligomers as oligonucleotides was screened for protein knock-down by western blot analysis and for RNA knock-down by TaqMan, using the primers and probes described in Example 3, above, under two different conditions. HIAP1 RNA levels may be detected using standard Northern blot analyses or RT-PCR techniques. The antisense oligonucleotides were administered to cells under basal conditions or under cycloheximide-induction conditions (24 hour treatment with sub-toxic doses). Cycloheximide (CHX) can lead to a 10- to 200-fold induction of HIAP1 mRNA depending on the cell line treated. […] This effect of CHX is via two distinct mechanisms of action. First, CHX activates NFkB, a known transcriptional inducer of HIAP1, by blocking the de novo synthesis of a labile protein, IkB, which is an inhibitor of NFkB. This effect is mimicked by puromycin, another protein synthesis inhibitor, and by TNF-alpha, which induces a signaling cascade leading to the phosphorylation, ubiquination, and degradation of IkB.
SF295 glioblastoma cells were transfected with lipofectin and oligonucleotide (scrambled survivin, no oligonucleotide, antisense APO 1 to APO 15) or left untreated. […]

HIAP1 mRNA [2] = assay: HIAP1 mRNA in SF295 cells under cycloheximide induction (TaqMan)
Description: (§1) The effect of HIAP1 antisense nucleobase oligomers on HIAP1 protein and mRNA expression was also examined in cells induced to express HIAP1. SF295 cells were transfected with oligonucleotides, or were mock transfected. The transfected cells were then treated with 10 μg/ml cycloheximide for 24 hours to induce 70 kDa HIAP1 mRNA and protein. Protein levels were measured by western blot analysis with an anti-HIAP1 polyclonal antibody, and normalized against actin protein in a re-probing of the same blots. The densitometric scan results were plotted against the mock results (set at 100%) in FIG. 22B. […] The transfection process itself (e.g., mock or scrambled survivin) induces HIAP1 protein compared to the untreated sample as shown on the western immunoblot.
Controls for this experiment were three oligonucleotides for APO 2: one scrambled sequence (same base composition but random order, 5′-AAGGGCGGCGGAGTGAGAC-3′; SEQ ID NO: 297), one reverse polarity (same base composition, same sequential order but in the opposite direction, 5′-AGAGGACGGAGTCGGAGGC-3′; SEQ ID NO: 298), and one mismatch sequence (containing four base mismatches out of 19 bases, 5′-CGGAGCGTGAGGATGGAGA-3′; SEQ ID NO: 299).

HIAP1 protein = HIAP1 protein in cycloheximide-induced SF295 cells (western blot)
Text: HIAP1 was detected on a western immunoblot using an affinity-purified anti-rat HIAP1 rabbit polyclonal antibody as a primary antibody and was detected by ECL (Amersham) on X-ray film with a secondary horseradish-peroxidase-conjugated anti-rabbit Ig antibody and a chemiluminescent substrate. The anti-HIAP1 polyclonal antibody is raised against a GST-fusion of the rat HIAP1. This antibody cross-reacts with both human and murine HIAP1 and HIAP2.
as §1

survivin protein = assay: Survivin protein after APO 2 treatment; conditions: after oligo treatment
SF295 cells = assay: Cytotoxicity of HIAP1 oligonucleotides measured by total protein; conditions: FIG. 23
Text: FIG. 23 is a graph showing the effects of HIAP1 oligonucleotides on cytotoxicity, as measured by total protein.

CGGAGGCTGAGGCAGGAGA (CGGAGGCNGAGGCAGGAGA; chemistry not given here) [APO 2]
HIAP1 mRNA levels (in words) (HIAP1 mRNA [1]): did not cause a stress-induced increase in HIAP1 mRNA | decrease of HIAP1 mRNA compared to mock or scrambled survivin control (HIAP1 mRNA [1]; SF295 cells, six hours after transfection): ~50% | effect on HIAP1 mRNA (and protein) under CHX induction (in words) (HIAP1 mRNA [2]): greatest block of CHX-induced upregulation of HIAP1 mRNA and protein | decrease in HIAP1 mRNA compared to scrambled survivin control (HIAP1 mRNA [2]; cycloheximide induction conditions, 6 hours after transfection): 50% | activity in the HIAP1 protein and mRNA assays (HIAP1 protein): high activity, or had significant activity in both the protein and mRNA assays | loss of survivin protein (specificity) (survivin protein): did not see any loss of survivin protein

TCTCACAGACGTTGGGCTT (chemistry not given here) [APO 6]
HIAP1 mRNA levels (in words) (HIAP1 mRNA [1]): stress-induced increase in HIAP1 mRNA | toxicity seen as general decrease in total protein (SF295 cells): evidence of toxicity
